Values joined by “and” are separate entries in the source; they are usually repeats but may differ in a detail not shown here. Equal entries are not always repeated. Toxic doses and inconclusive results are not listed.
Tested on: P388 leukemia ip, CD2F1 mice, survival T/C
Experiment: NCI In Vivo Anticancer Drug Screen. Data for tumor model P388 Leukemia (intraperitoneal) in CD2F1 (CDF1) mice
Conditions: endpoint: median survival time, higher = longer survival
In short: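 Mice carrying the transplanted tumor received test compound or vehicle. Survival was recorded in each group, and the value is the treated-group measurement divided by that of the vehicle-treated control group.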

[1] = dose: 12.5 mg/kg/injection, schedule: Q01DX009 (ip), vehicle: saline
[2] = dose: 25.0 mg/kg/injection, schedule: Q01DX009 (ip), vehicle: saline
[3] = dose: 50.0 mg/kg/injection, schedule: Q01DX009 (ip), vehicle: Klucel (hydroxypropylcellulose) (HPC)
[4] = dose: 100.0 mg/kg/injection, schedule: Q01DX009 (ip), vehicle: Klucel (hydroxypropylcellulose) (HPC)
[5] = dose: 200.0 mg/kg/injection, schedule: Q01DX009 (ip), vehicle: Klucel (hydroxypropylcellulose) (HPC)
[6] = dose: 12.5 mg/kg/injection, schedule: Q04DX003 (ip), vehicle: saline
[7] = dose: 25.0 mg/kg/injection, schedule: Q04DX003 (ip), vehicle: saline
[8] = dose: 100.0 mg/kg/injection, schedule: Q01DX009 (ip), vehicle: saline
[9] = dose: 200.0 mg/kg/injection, schedule: Q01DX009 (ip), vehicle: saline
[10] = dose: 50.0 mg/kg/injection, schedule: Q01DX009 (ip), vehicle: saline with Tween-80
[11] = dose: 100.0 mg/kg/injection, schedule: Q01DX009 (ip), vehicle: saline with Tween-80
[12] = dose: 200.0 mg/kg/injection, schedule: Q01DX009 (ip), vehicle: saline with Tween-80
[13] = dose: 100.0 mg/kg/injection, schedule: Q01DX001 (ip), vehicle: saline with Tween-80
[14] = dose: 50.0 mg/kg/injection, schedule: Q01DX009 (ip), vehicle: suspension in saline
[15] = dose: 100.0 mg/kg/injection, schedule: Q01DX009 (ip), vehicle: suspension in saline
[16] = dose: 200.0 mg/kg/injection, schedule: Q01DX009 (ip), vehicle: suspension in saline
[17] = dose: 60.0 mg/kg/injection, schedule: Q01DX005 (ip), vehicle: Klucel (hydroxypropylcellulose) (HPC)
[18] = dose: 120.0 mg/kg/injection, schedule: Q01DX005 (ip), vehicle: Klucel (hydroxypropylcellulose) (HPC)
[19] = dose: 240.0 mg/kg/injection, schedule: Q01DX005 (ip), vehicle: Klucel (hydroxypropylcellulose) (HPC)
[20] = dose: 50.0 mg/kg/injection, schedule: Q01DX005 (ip), vehicle: saline with Tween-80
[21] = dose: 100.0 mg/kg/injection, schedule: Q01DX005 (ip), vehicle: saline with Tween-80
[22] = dose: 50.0 mg/kg/injection, schedule: Q01DX005 (ip), vehicle: saline
[23] = dose: 100.0 mg/kg/injection, schedule: Q01DX005 (ip), vehicle: saline
[24] = dose: 200.0 mg/kg/injection, schedule: Q01DX005 (ip), vehicle: saline with Tween-80

Cc1cc(-c2ccc(N=Nc3ccc4c(S(=O)(=O)O)cc(S(=O)(=O)O)c(N)c4c3O)c(C)c2)ccc1N=Nc1ccc2c(S(=O)(=O)O)cc(S(=O)(=O)O)c(N)c2c1O
T/C [1]: 116 % of control
T/C [2]: 107 % of control

Nc1c[nH]c2ccccc2c1=O
T/C [3]: 104 % of control
T/C [4]: 101 % of control
T/C [5]: 100 % of control

CN1C(=O)C2CCCN2C(=O)C1(C)NC(=O)OCc1ccccc1 (stereo unspecified)
T/C (dose: 3.12 mg/kg/injection, schedule: Q04DX003 (ip), vehicle: saline): 107 % of control and 98 % of control
T/C (dose: 6.25 mg/kg/injection, schedule: Q04DX003 (ip), vehicle: saline): 105 % of control and 98 % of control
T/C [6]: 102 % of control and 105 % of control
T/C [7]: 99 % of control and 107 % of control
T/C (dose: 25.0 mg/kg/injection, schedule: Q04DX003 (ip), vehicle: suspension in saline): 100 % of control

Nc1oc([N+](=O)[O-])cc1[N+](=O)[O-]
T/C [8]: 106 % of control
T/C [9]: 118 % of control

CC1=CC(C)C/C=C/C2C3OC3(C)C(C)C3C(Cc4c[nH]c5ccccc45)NC(=O)C23C(=O)C=CC(=O)C1O (stereo unspecified)
T/C (dose: 0.2 mg/kg/injection, schedule: Q01DX005 (ip), vehicle: Klucel (hydroxypropylcellulose) (HPC)): 102 % of control
T/C (dose: 0.4 mg/kg/injection, schedule: Q01DX005 (ip), vehicle: Klucel (hydroxypropylcellulose) (HPC)): 97 % of control
T/C (dose: 0.8 mg/kg/injection, schedule: Q01DX005 (ip), vehicle: Klucel (hydroxypropylcellulose) (HPC)): 106 % of control
T/C (dose: 1.6 mg/kg/injection, schedule: Q01DX005 (ip), vehicle: Klucel (hydroxypropylcellulose) (HPC)): 107 % of control
T/C (dose: 2.0 mg/kg/injection, schedule: Q01DX005 (ip), vehicle: Klucel (hydroxypropylcellulose) (HPC)): 109 % of control
T/C (dose: 16.0 mg/kg/injection, schedule: Q01DX005 (ip), vehicle: Klucel (hydroxypropylcellulose) (HPC)): 117 % of control

O=P(OCCN(CCOP(=O)(Oc1ccccc1)Oc1ccccc1)c1ccc2ccccc2c1)(Oc1ccccc1)Oc1ccccc1
T/C [10]: 94 % of control
T/C [11]: 86 % of control
T/C [12]: 96 % of control

Cn1c2cc([N+](=O)[O-])ccc2c(=O)c2c(O)cc(O)cc21
T/C [13]: 101 % of control
T/C (dose: 200.0 mg/kg/injection, schedule: Q01DX001 (ip), vehicle: saline with Tween-80): 92 % of control
T/C (dose: 400.0 mg/kg/injection, schedule: Q01DX001 (ip), vehicle: saline with Tween-80): 104 % of control

Cc1c2cccc1CSCc1cccc(c1C)CSC2
T/C [14]: 99 % of control
T/C [15]: 92 % of control
T/C [16]: 100 % of control

O=C(O)c1cc(C(=O)CC(=O)c2cc(C(=O)O)c(O)c3ccccc23)c2ccccc2c1O
T/C [10]: 94 % of control
T/C [11]: 88 % of control

CCC[CH2][Sn]([CH2]CCC)([S]CCS(=O)(=O)O)[S]CCS(=O)(=O)O (tested in a mixture with another compound)
T/C [17]: 105 % of control
T/C [18]: 105 % of control
T/C [19]: 115 % of control

CCCCN(C)C12CN3CN(CN(C3)C1)C2
T/C [3]: 101 % of control
T/C [4]: 103 % of control
T/C [5]: 96 % of control

CC(C)C(=NC1CCCCC1)NC(C)(C)C
T/C [10]: 93 % of control
T/C [11]: 99 % of control

O=C(c1ccccc1)C1C(=O)c2cc3c(cc2C1=O)C(=O)C(C(=O)c1ccccc1)C3=O
T/C (dose: 25.0 mg/kg/injection, schedule: Q04DX002 (ip), vehicle: saline with Tween-80): 99 % of control
T/C (dose: 50.0 mg/kg/injection, schedule: Q04DX002 (ip), vehicle: saline with Tween-80): 95 % of control
T/C (dose: 100.0 mg/kg/injection, schedule: Q04DX002 (ip), vehicle: saline with Tween-80): 95 % of control

CCOCN(COCC)c1ccc(Cl)cc1
T/C [12]: 164 % of control

O=C1NC(=O)C2CC3C(CC12)C1C(=O)NC(=O)C31 (stereo unspecified)
T/C [20]: 104 % of control
T/C [21]: 101 % of control

CN(C)CCCN1CN(CCCN(C)C)CN(CCCN(C)C)C1
T/C [22]: 99 % of control
T/C [23]: 103 % of control

CN(CCOc1ccccc1)Cc1ccccc1
T/C [17]: 97 % of control
T/C [18]: 104 % of control
T/C [19]: 105 % of control

CCOC(=O)Cn1cnc2sc3c(c2c1=O)CCCC3
T/C [20]: 100 % of control
T/C [21]: 98 % of control
T/C [24]: 89 % of control

CC(C)NC(=O)C(C)O (stereo unspecified)
T/C [22]: 101 % of control
T/C [23]: 101 % of control
T/C (dose: 200.0 mg/kg/injection, schedule: Q01DX005 (ip), vehicle: saline): 101 % of control

COc1ccc2nc3cc(Cl)ccc3c(Nc3ccc(S(=O)(=O)Nc4nccs4)cc3)c2c1
T/C [20]: 94 % of control
T/C [21]: 105 % of control
T/C [24]: 97 % of control

O=[N+]([O-])c1ccc(Sc2nccc(Cl)n2)c([N+](=O)[O-])c1
T/C [14]: 100 % of control
T/C [8]: 92 % of control
T/C [15]: 98 % of control
T/C [9]: 104 % of control
T/C [16]: 91 % of control

C[C@@]12CCC[C@@H]1OC(=O)C2
T/C [20]: 98 % of control

CCOc1c(N=Nc2ccccc2Cl)c(C)nn1C(N)=S
T/C (dose: 3.75 mg/kg/injection, schedule: Q01DX005 (ip), vehicle: Klucel + Tween-80): 103 % of control
T/C (dose: 7.5 mg/kg/injection, schedule: Q01DX005 (ip), vehicle: Klucel + Tween-80): 103 % of control
T/C (dose: 15.0 mg/kg/injection, schedule: Q01DX005 (ip), vehicle: Klucel + Tween-80): 100 % of control and 110 % of control

Cc1ccc(S(=O)(=O)Nc2ccccc2OCCN(CCOc2ccccc2NS(=O)(=O)c2ccc(C)cc2)S(=O)(=O)c2ccc(C)cc2)cc1
T/C [10]: 96 % of control
T/C [11]: 99 % of control
T/C [12]: 93 % of control

C[n+]1ccc2ccccc2c1C#N
T/C [6]: 106 % of control
T/C [7]: 98 % of control

O=C(CCCCCCCC(=O)Nc1ccc2[nH]c3ccccc3c(=O)c2c1)Nc1ccc2[nH]c3ccccc3c(=O)c2c1
T/C [20]: 107 % of control
T/C [21]: 107 % of control
T/C [24]: 106 % of control

CCCCNC(C)(C)C(SSSC(c1cccs1)C(C)(C)NCCCC)c1cccs1 (stereo unspecified)
T/C [20]: 121 % of control
T/C [21]: 120 % of control
T/C (dose: 100.0 mg/kg/injection, schedule: Q04DX003 (ip), vehicle: saline with Tween-80): 101 % of control
T/C [24]: 123 % of control
T/C (dose: 200.0 mg/kg/injection, schedule: Q04DX003 (ip), vehicle: saline with Tween-80): 105 % of control
T/C (dose: 400.0 mg/kg/injection, schedule: Q04DX003 (ip), vehicle: saline with Tween-80): 105 % of control

O=C(O)CNC(=O)C1(N2C(=O)c3ccccc3C2=O)CCCC1
T/C [20]: 99 % of control
T/C [21]: 101 % of control
T/C [24]: 97 % of control

CO[C@@H]1C2=CC=CC=C[C@H]2n2c(=O)n(-c3ccccc3)c(=O)n21
T/C (dose: 50.0 mg/kg/injection, schedule: Q01DX005 (ip), vehicle: Klucel (hydroxypropylcellulose) (HPC)): 102 % of control
T/C (dose: 100.0 mg/kg/injection, schedule: Q01DX005 (ip), vehicle: Klucel (hydroxypropylcellulose) (HPC)): 103 % of control

O=[N+]([O-])c1ccc(/C=C/c2cccs2)c([N+](=O)[O-])c1
T/C [3]: 105 % of control
T/C [4]: 94 % of control
T/C [5]: 88 % of control

C[N+]12CC[N+](C)(CC1)CC2
T/C [1]: 101 % of control
T/C [2]: 109 % of control
T/C (dose: 50.0 mg/kg/injection, schedule: Q01DX009 (ip), vehicle: saline): 115 % of control

O=C(Cc1nc2ccccc2s1)Nc1ccc2ccccc2c1
T/C (dose: 60.0 mg/kg/injection, schedule: Q01DX005 (ip), vehicle: saline with Tween-80): 107 % of control
T/C (dose: 120.0 mg/kg/injection, schedule: Q01DX005 (ip), vehicle: saline with Tween-80): 106 % of control

COC(=O)C1([Se]c2ccccc2)CCN2CCC(OCc3ccccc3[N+](=O)[O-])C21 (stereo unspecified)
T/C (dose: 25.0 mg/kg/injection, schedule: Q01DX001 (ip), vehicle: saline with Tween-80): 90 % of control
T/C (dose: 50.0 mg/kg/injection, schedule: Q01DX001 (ip), vehicle: saline with Tween-80): 105 % of control
T/C [13]: 108 % of control and 89 % of control
